Experiments:
Format in all cases: cell-based
KM12 = experiment: NCI-60 one-dose SRB screen (Colon Cancer); settings: Homo sapiens, single dose 10 µM, 48 h, read-out: Growth inhibition percent (GI %)
Experimental: (§1) The National Cancer Institute (NCI) Developmental Therapeutic Program (www.dtp.nci.nih.gov) selected the 20 novel synthesized compounds 4a-e, 5a-e, 6a-c, 9a-e, 10 and 11 to test for their anticancer activity at a single dose of 10 µM using SRB assay. […] Supplementary Data S3; Table S1 presents the detailed screening results of the most promising compounds. The preliminary screening’s detailed results for the remaining compounds are elucidated in the (Supplementary Data S3; Table S2).
(§2) The guidelines of the Drug Evaluation Branch’s protocol at the NCI in Bethesda served as the basis for the in vitro anticancer screening assays. at one dose 10 µM against a panel of 60 cancer cell lines. The human tumor cell lines used belonged to nine panels: leukemia, melanoma, lung, colon, CNS, ovarian, renal, prostate and breast cancers using the sulforhodamine B (SRB) assay in a 48 h drug exposure protocol.

SW-620 = experiment: NCI-60 one-dose SRB screen (Colon Cancer); settings: Homo sapiens, single dose 10 µM, 48 h, read-out: Growth inhibition percent (GI %)
Experimental: as §1, §2

HCC-2998 = experiment: NCI-60 one-dose SRB screen (Colon Cancer); settings: Homo sapiens, single dose 10 µM, 48 h, read-out: Growth inhibition percent (GI %)
Experimental: as §1, §2

HCT-116 = experiment: NCI-60 one-dose SRB screen (Colon Cancer); settings: Homo sapiens, single dose 10 µM, 48 h, read-out: Growth inhibition percent (GI %)
Experimental: as §1, §2

HT29 = experiment: NCI-60 one-dose SRB screen (Colon Cancer); settings: Homo sapiens, HT-29, single dose 10 µM, 48 h, read-out: Growth inhibition percent (GI %)
Experimental: as §1, §2

HCT-15 = experiment: NCI-60 one-dose SRB screen (Colon Cancer); settings: Homo sapiens, single dose 10 µM, 48 h, read-out: Growth inhibition percent (GI %)
Experimental: as §1, §2

COLO 205 = experiment: NCI-60 one-dose SRB screen (Colon Cancer); settings: Homo sapiens, single dose 10 µM, 48 h, read-out: Growth inhibition percent (GI %)
Experimental: as §1, §2

HS 578T = experiment: NCI-60 one-dose SRB screen (Breast Cancer); settings: Homo sapiens, single dose 10 µM, 48 h, read-out: Growth inhibition percent (GI %)
Experimental: as §1, §2

MCF-7 = experiment: NCI-60 one-dose SRB screen (Breast Cancer); settings: Homo sapiens, MCF7, single dose 10 µM, 48 h, read-out: Growth inhibition percent (GI %)
Experimental: as §1, §2

BT-549 = experiment: NCI-60 one-dose SRB screen (Breast Cancer); settings: Homo sapiens, single dose 10 µM, 48 h, read-out: Growth inhibition percent (GI %)
Experimental: as §1, §2

MDA-MB-231/ATCC = experiment: NCI-60 one-dose SRB screen (Breast Cancer); settings: Homo sapiens, single dose 10 µM, 48 h, read-out: Growth inhibition percent (GI %)
Experimental: as §1, §2

MDA-MB-468 = experiment: NCI-60 one-dose SRB screen (Breast Cancer); settings: Homo sapiens, single dose 10 µM, 48 h, read-out: Growth inhibition percent (GI %)
Experimental: as §1, §2

T-47D = experiment: NCI-60 one-dose SRB screen (Breast Cancer); settings: Homo sapiens, T47D, single dose 10 µM, 48 h, read-out: Growth inhibition percent (GI %)
Experimental: as §1, §2

RPMI-8226 = experiment: NCI-60 one-dose SRB screen (Leukemia); settings: Homo sapiens, single dose 10 µM, 48 h, read-out: Growth inhibition percent (GI %)
Experimental: as §1, §2

HL-60(TB) = experiment: NCI-60 one-dose SRB screen (Leukemia); settings: Homo sapiens, single dose 10 µM, 48 h, read-out: Growth inhibition percent (GI %)
Experimental: as §1, §2

K-562 = experiment: NCI-60 one-dose SRB screen (Leukemia); settings: Homo sapiens, K562, single dose 10 µM, 48 h, read-out: Growth inhibition percent (GI %)
Experimental: as §1, §2

MOLT-4 = experiment: NCI-60 one-dose SRB screen (Leukemia); settings: Homo sapiens, single dose 10 µM, 48 h, read-out: Growth inhibition percent (GI %)
Experimental: as §1, §2

CCRF-CEM = experiment: NCI-60 one-dose SRB screen (Leukemia); settings: Homo sapiens, single dose 10 µM, 48 h, read-out: Growth inhibition percent (GI %)
Experimental: as §1, §2

SR = experiment: NCI-60 one-dose SRB screen (Leukemia); settings: Homo sapiens, single dose 10 µM, 48 h, read-out: Growth inhibition percent (GI %)
Experimental: as §1, §2

SF-539 = experiment: NCI-60 one-dose SRB screen (CNS Cancer); settings: Homo sapiens, single dose 10 µM, 48 h, read-out: Growth inhibition percent (GI %)
Experimental: as §1, §2

SF-295 = experiment: NCI-60 one-dose SRB screen (CNS Cancer); settings: Homo sapiens, single dose 10 µM, 48 h, read-out: Growth inhibition percent (GI %)
Experimental: as §1, §2

U251 = experiment: NCI-60 one-dose SRB screen (CNS Cancer); settings: Homo sapiens, U-251, single dose 10 µM, 48 h, read-out: Growth inhibition percent (GI %)
Experimental: as §1, §2

SNB-75 = experiment: NCI-60 one-dose SRB screen (CNS Cancer); settings: Homo sapiens, single dose 10 µM, 48 h, read-out: Growth inhibition percent (GI %)
Experimental: as §1, §2

SNB-19 = experiment: NCI-60 one-dose SRB screen (CNS Cancer); settings: Homo sapiens, single dose 10 µM, 48 h, read-out: Growth inhibition percent (GI %)
Experimental: as §1, §2

SF-268 = experiment: NCI-60 one-dose SRB screen (CNS Cancer); settings: Homo sapiens, single dose 10 µM, 48 h, read-out: Growth inhibition percent (GI %)
Experimental: as §1, §2

CAKI-1 = experiment: NCI-60 one-dose SRB screen (Renal Cancer); settings: Homo sapiens, single dose 10 µM, 48 h, read-out: Growth inhibition percent (GI %)
Experimental: as §1, §2

ACHN = experiment: NCI-60 one-dose SRB screen (Renal Cancer); settings: Homo sapiens, single dose 10 µM, 48 h, read-out: Growth inhibition percent (GI %)
Experimental: as §1, §2

A498 = experiment: NCI-60 one-dose SRB screen (Renal Cancer); settings: Homo sapiens, single dose 10 µM, 48 h, read-out: Growth inhibition percent (GI %)
Experimental: as §1, §2

TK-10 = experiment: NCI-60 one-dose SRB screen (Renal Cancer); settings: Homo sapiens, single dose 10 µM, 48 h, read-out: Growth inhibition percent (GI %)
Experimental: as §1, §2

UO-31 = experiment: NCI-60 one-dose SRB screen (Renal Cancer); settings: Homo sapiens, single dose 10 µM, 48 h, read-out: Growth inhibition percent (GI %)
Experimental: as §1, §2

In the case of CCOC(=O)c1ccc(NC(=O)COC(=O)c2cn(-c3ccc(S(N)(=O)=O)cc3)nc2-c2ccccc2)cc1 [Compound 5a, 2-[(4-(Ethoxycarbonyl)phenyl)amino]-2-oxoethyl 3-phenyl-1-(4-sulfamoylphenyl)-1H-pyrazole-4-carboxylate], the inhibition at 10 µM (KM12) is reported as 73.6%, the inhibition at 10 µM (SW-620) is reported as 47.1% and the inhibition at 10 µM (HCC-2998) is reported as 63.9%. It also gave an inhibition at 10 µM (HCT-116) of 75.8%, an inhibition at 10 µM (HT29) of 78.8% and an inhibition at 10 µM (HCT-15) of 72.7%. It also gave an inhibition at 10 µM (COLO 205) of 39.1%, an inhibition at 10 µM (HS 578T) of 44.6% and an inhibition at 10 µM (MCF-7) of 81.6%. For the same compound, the inhibition at 10 µM (BT-549) was 64.1%, the inhibition at 10 µM (MDA-MB-231/ATCC) was 35.8% and the inhibition at 10 µM (MDA-MB-468) was 62%. It also gave an inhibition at 10 µM (T-47D) of 69.7%, an inhibition at 10 µM (RPMI-8226) of 86.8% and an inhibition at 10 µM (HL-60(TB)) of 92.1%. For the same compound, the inhibition at 10 µM (K-562) was 78.7%, the inhibition at 10 µM (MOLT-4) was 89% and the inhibition at 10 µM (CCRF-CEM) was 82%. It also gave an inhibition at 10 µM (SR) of 82.1%, an inhibition at 10 µM (SF-539) of 46% and an inhibition at 10 µM (SF-295) of 60%. It also gave an inhibition at 10 µM (U251) of 58.5%, an inhibition at 10 µM (SNB-75) of 60.6% and an inhibition at 10 µM (SNB-19) of 60.9%. The inhibition at 10 µM (SF-268) was 52.2%, the inhibition at 10 µM (CAKI-1) was 61.6% and the inhibition at 10 µM (ACHN) was 76.1%. The inhibition at 10 µM (A498) was 25.3%, the inhibition at 10 µM (TK-10) was 40.1% and the inhibition at 10 µM (UO-31) was 62.7%.

Reference: paper PMC12454493, “Insight on novel sulfamoylphenyl pyrazole derivatives as anticancer carbonic anhydrase inhibitors” (Molecular Diversity, 2024)
